Results as given in patent US8883856B2, “Compositions and methods for the treatment of inflammatory diseases using topoisomerase inhibitors” (priority 2000, dated 2014).
Where two headings read alike, the source gives them in different places.

Legend:
rat carotid artery = assay type: in vivo; settings: for inhibition of luminal narrowing / inhibition of intimal hyperplasia: perivascular
Source text: In this model of restenosis, a balloon catheter is used to induce damage to the lumen of carotid arteries in rats. This damage causes extensive intimal hyperplasia and luminal narrowing, characteristic of restenosis. To determine the effect of drugs as antirestenosis agents, a polymeric dosage form of a drug is applied to the outside of the artery (perivascular application).
Wistar rats weighing 400 g to 500 g were anesthetized with halothane. A vertical incision was made over the trachea and the left carotid artery was exposed. Two ligatures were placed around the external carotid artery and an arteriotomy was made between them. A 2 French Fogarty balloon catheter was introduced into the external carotid artery and pushed into the left common carotid artery and the balloon was inflated with saline. The catheter was passed up and down the entire length of the carotid artery three times to stretch the vessel and denude the endothelium. The catheter was removed and the ligatures were tied off on the external carotid artery. […] The wound was then closed and the animals recovered. After 14 days, the rats were sacrificed and pressure perfused at 100 mmHg with 10% buffered formaldehyde. Both carotid arteries were harvested and processed for histology. Serial cross-sections were cut every 2 mm within and outside the implant in the injured left carotid artery and at corresponding levels in the control right carotid artery. Sections were stained with hematoxylin-and-eosin and Movat's stains and digitized for computer assisted morphometric analysis to quantify luminal narrowing and intimal hyperplasia.

[1] = Encapsulation efficiency of drug in polymer microspheres; assay type: physicochemical
Experimental: Camptothecin (Sigma) was dissolved in a 5% (w/v) solution of poly(L-lactic acid) (2K molecular weight, Polysciences) in various ratios of drug to polymer (from 0.5:100 to 8:100 (w/w). Ten ml of each of these solutions were pipetted into 100 ml of a 2.5% (w/v) solution of poly vinyl alcohol (PVA, mol wt 13-21K Aldrich) with over head stirring at 500 rpm. After two hours stirring the PVA/microsphere suspension was poured through 90 um then 50 um sieves to collect the 50-90 um fraction of microspheres. These spheres were then washed in distilled water three times and dried under vacuum. The dried spheres were obtained in high yields (over 50% of the initial polymer was recovered as microspheres in the 50-90 um size range). […] Encapsulation efficiency was measured by dissolving microspheres in 1 ml of dichlomethane, extracting the drug into a 60/40 (v/v) acetonitrile water mixture and analysis by visible absorbance at 370 nm. The encapsulation efficiency of the drug in the polymer varied with the initial ratio of drug to polymer with high ratios resulting in a high level of encapsulation.
Plumbagin (Sigma) was dissolved in a 5% (w/v) solution of poly (L-lactic acid) (2K molecular weight, Polysciences) to give a final ratio of drug to polymer of 1:10 (w/w). Ten ml of this solution was pipetted into 100 ml of a 2.5% (w/v) solution of poly vinyl alcohol (PVA, mol wt 13-21K Aldrich) with over head stirring at 500 rpm. After two hours stirring the PVA/microsphere suspension was poured through 90 um then 50 um sieves to collect the 50-90 um fraction of microspheres. These spheres were then washed in distilled water three times and dried under vacuum. The dried spheres were obtained in high yields with over 50% of the initial polymer being recovered in microspheres in the 50-90 um size range. The microspheres were dense yellow in colour indicating high encapsulation efficiency of the drug plumbagin. The encapsulation efficiency was measured by dissolving the microspheres in 1 ml of dichlomethane, extracting the drug into a 60/40 (v/v) acetonitrile water mixture and analysis by visible absorbance at 420 nm. The encapsulation efficiency of the drug in the polymer was 80%.
Ten ml of each solution was pipetted into 100 ml of a 2.5% (w/v) solution of poly vinyl alcohol (PVA, mol wt 13-21K Aldrich) with over head stirring at 500 rpm. After two hours stirring the PVA/microsphere suspension was poured through 90 um then 50 um sieves to collect the 50-90 um fraction of microspheres. These spheres were then washed in distilled water three times and dried under vacuum. The dried spheres were obtained in high yields (over 50% of the initial polymer was recovered as microspheres in the 50-90 um size range).
Ten ml of each solution was pipetted into 100 ml of a 2.5% (w/v) solution of poly vinyl alcohol (PVA, mol wt 13-21K Aldrich) with over head stirring at 500 rpm. After two hours stirring the PVA/microsphere suspension was poured through 90 um then 50 um sieves to collect the 50-90 um fraction of microspheres. These spheres were then washed in distilled water three times and dried under vacuum.

[2] = polycaprolactone microspheres 50-90 um, drug to polymer 1:50
[3] = Example 19 microspheres 50-90 um, drug to polymer 1:40 (beta-lapachone) or 1:100 (etoposide, doxorubicin)

## CC[C@@]1(O)C(=O)OCc2c1cc1n(c2=O)Cc2cc3ccccc3nc2-1 [camptothecin]
Rat carotid artery; 0.2% (w/w to EVA) film
  inhibition of luminal narrowing: more than 50%
Rat carotid artery; 0.2%, 1% and 10% loaded EVA films, 14 days
  inhibition of intimal hyperplasia: partial inhibition
Rat carotid artery; 20% loaded EVA film, 14 days
  inhibition of intimal hyperplasia: Complete inhibition
Rat carotid artery; all concentrations above 0.2% in EVA film
  luminal narrowing: reduced the luminal narrowing to almost zero

## CC1=CC(=O)c2c(O)cccc2C1=O [plumbagin]
Rat carotid artery; applied to the perivascular side of the rat carotid artery
  necrosis or toxicity after perivascular application: excessive toxicities
[1]; poly(L-lactic acid) 2K microspheres 50-90 um, drug to polymer 1:10
  encapsulation efficiency of the drug in the polymer: 80%
[1]; [2]
  encapsulation efficiency of the drug in the polymer: 85%

## COc1cc([C@@H]2c3cc4c(cc3[C@@H](O[C@@H]3O[C@@H]5CO[C@@H](C)O[C@H]5[C@H](O)[C@H]3O)[C@H]3COC(=O)[C@H]23)OCO4)cc(OC)c1O [etoposide]
Rat carotid artery; both 1% and 5% loaded EVA films
  inhibition of intimal hyperplasia: approximately 75%
Rat carotid artery; rat, in vivo
  necrosis or toxicity after perivascular application: did not induce any necrosis or toxicity in surrounding tissue

## CC1=CC(=O)c2ccccc2C1=O [menadione]
[1]; [2]
  encapsulation efficiency of the drug in the polymer: 73%

## CC1(C)CCC2=C(O1)c1ccccc1C(=O)C2=O [beta-lapachone]
[1]; [3]
  encapsulation efficiency of the drug in the polymer: 97%

## COc1cccc2c1C(=O)c1c(O)c3c(c(O)c1C2=O)C[C@@](O)(C(=O)CO)C[C@@H]3O[C@H]1C[C@H](N)[C@H](O)[C@H](C)O1 [doxorubicin]
Rat carotid artery; 2% loading (w/w to EVA) film
  inhibition of intimal hyperplasia: completely inhibited
  inhibition of luminal narrowing: completely inhibited
Rat carotid artery; rat, in vivo
  necrosis or toxicity after perivascular application: did not induce any necrosis or toxicity in surrounding tissue
[1]; [3]
  encapsulation efficiency of the drug in the polymer: 95%
